Test results published in US9440950B2, “Arginine methyltransferase inhibitors and uses thereof” (Epizyme, Inc., priority 2013, dated 2016).

test system: Mono-Methyl Arginine in RKO cells; test: RKO Methylation Assay (In Cell Western); format: cell-based; conditions: Homo sapiens, 72 hours, percent activation
From the text: RKO Methylation Assay RKO adherent cells were purchased from ATCC (American Type Culture Collection), Manassas, Va., USA. DMEM/Glutamax medium, penicillin-streptomycin, heat inactivated fetal bovine serum, 0.05% trypsin and D-PBS were purchased from Life Technologies, Grand Island, N.Y., USA. Odyssey blocking buffer, 800CW goat anti-rabbit IgG (H+L) antibody, and Licor Odyssey infrared scanner were purchased from Licor Biosciences, Lincoln, Nebr., USA. Mono-methyl arginine antibody was purchased from Cell Signaling Technology, Danvers, Mass., USA. Methanol was purchased from VWR, Franklin, Mass., USA. 10% Tween 20 was purchased from KPL, Inc., Gaithersburg, Md., USA. DRAQ5 was purchased from Biostatus Limited, Leicestershire, UK. RKO adherent cells were maintained in growth medium (DMEM/Glutamax medium supplemented with 10% v/v heat inactivated fetal bovine serum and 100 units/mL penicillin-streptomycin) and cultured at 37° C. under 5% CO2. Cell Treatment, In Cell Western (ICW) for Detection of Mono-Methyl Arginine and DNA Content. RKO cells were seeded in assay medium at a concentration of 20,000 cells per mL to a poly-D-lysine coated 384 well culture plate (BD Biosciences 356697) with 50 μL per well. Compound (100 nL) from a 96-well source plate was added directly to 384 well cell plate. Plates were incubated at 37° C., 5% CO2 for 72 hours. After three days of incubation, plates were brought to room temperature outside of the incubator for ten minutes and blotted on paper towels to remove cell media. 50 μL of ice cold 100% methanol was added directly to each well and incubated for 30 min at room temperature. After 30 min, plates were transferred to a Biotek EL406 plate washer and washed 2 times with 100 μL per well of wash buffer (IX PBS). Next 60 μL per well of Odyssey blocking buffer (Odyssey Buffer with 0.1% Tween 20 (v/v)) were added to each plate and incubated 1 hour at room temperature. Blocking buffer was removed and 20 μL per well of primary antibody was added (mono-methyl arginine diluted 1:200 in Odyssey buffer with 0.1% Tween 20 (v/v)) and plates were incubated overnight (16 hours) at 4° C. Plates were washed 5 times with 100 μL per well of wash buffer. Next 20 μL per well of secondary antibody was added (1:200 800CW goat anti-rabbit IgG (H+L) antibody, 1:1000 DRAQ5 (Biostatus limited) in Odyssey buffer with 0.1% Tween 20 (v/v)) and incubated for 1 hour at room temperature. The plates were washed 5 times with 100 μL per well wash buffer then 2 times with 100 μL per well of water. Plates were allowed to dry at room temperature then imaged on the Licor Odyssey machine which measures integrated intensity at 700 nm and 800 nm wavelengths. Both 700 and 800 channels were scanned. Calculations: First, the ratio for each well was determined by: Each plate included fourteen control wells of DMSO only treatment (minimum activation) as well as fourteen control wells for maximum activation treated with 20 μM of a reference compound. The average of the ratio values for each control type was calculated and used to determine the percent activation for each test well in the plate. Reference compound was serially diluted three-fold in DMSO for a total of nine test concentrations, beginning at 20 μM. Percent activation was determined and EC30 curves were generated using triplicate wells per concentration of compound.

Going from `COc1ccc(-c2n[nH]cc2CN(C)CCN)cn1` [Compound 5] to `CC(C)Oc1ccc(-c2n[nH]cc2CN(C)CCN)cn1` [Compound 22], the EC30 falls from > 12 µM to < 3 µM.

Compared with `CN(CCN)Cc1c[nH]nc1-c1cncc(F)c1` [Compound 7], `CN(CCN)Cc1c[nH]nc1-c1cncc(Cl)c1` [Compound 19] is lower in EC30: > 12 µM for the first, 3.01 to 12 µM for the second.

First: CN(CCN)Cc1c[nH]nc1-c1ccncc1 [Compound 9]
Second: Cc1ccncc1-c1n[nH]cc1CN(C)CCN [Compound 17]
The EC30 of the first is lower: 3.01 to 12 µM for the first, > 12 µM for the second.

Compared with `COc1cc(-c2n[nH]cc2CN(C)CCN)ccn1` [Compound 11], `COc1cc(-c2n[nH]cc2CN(C)CCN)c(Cl)cn1` [Compound 12] is higher in EC30: 3.01 to 12 µM for the first, > 12 µM for the second.

Going from `CN(CCN)Cc1c[nH]nc1-c1ccc(C(F)(F)F)nc1` [Compound 13, N^1-methyl-N^1-((3-(6-(trifluoromethyl)pyridin-3-yl)-1H-pyrazol-4-yl)methyl)ethane-1,2-diamine] to `CCN(CC)c1ccc(-c2n[nH]cc2CN(C)CCN)cn1` [Compound 24], the EC30 rises from < 3 µM to > 12 µM.

`COc1ncc(Cl)cc1-c1n[nH]cc1CN(C)CCN` [Compound 14] and `COc1ncccc1-c1n[nH]cc1CN(C)CCN` [Compound 15] cannot be ordered by EC30: > 12 µM for the first, > 12 µM for the second.

`COc1ccncc1-c1n[nH]cc1CN(C)CCN` [Compound 16] and `CN(CCN)Cc1c[nH]nc1-c1cncc(C#N)c1` [Compound 18] cannot be ordered by EC30: > 12 µM for the first, > 12 µM for the second.

Compared with `CN(CCN)Cc1c[nH]nc1-c1ccc(N2CCOCC2)nc1` [Compound 20], `CC(C)CNc1ccc(-c2n[nH]cc2CN(C)CCN)cn1` [Compound 26] is higher in EC30: 3.01 to 12 µM for the first, > 12 µM for the second.

Compared with `CC(C)CN(C)c1ccc(-c2n[nH]cc2CN(C)CCN)cn1` [Compound 21], `CNCCN(C)Cc1c[nH]nc1-c1ccc(N(C)CC(C)C)nc1` [Compound 32, N^1-((3-(6-(isobutyl(methyl)amino)pyridin-3-yl)-1H-pyrazol-4-yl)methyl)-N^1,N^2-dimethylethane-1,2-diamine] is lower in EC30: 3.01 to 12 µM for the first, < 3 µM for the second.

`CN(CCN)Cc1c[nH]nc1-c1ccc(N(C)Cc2ccccc2)nc1` [Compound 23] and `CN(CCN)Cc1c[nH]nc1-c1ccc(NCc2ccccc2)nc1` [Compound 25] fall in the same range of EC30: 3.01 to 12 µM for the first, 3.01 to 12 µM for the second.

First: CNCCN(C)Cc1c[nH]nc1-c1ccc(N(C)CCC(C)C)nc1 [Compound 30]
Second: CCN(CCC(C)C)c1ccc(-c2n[nH]cc2CN(C)CCNC)cn1 [Compound 34, N^1-((3-(6-(ethyl(isopentyl)amino)pyridin-3-yl)-1H-pyrazol-4-yl)methyl)-N^1,N^2-dimethylethane-1,2-diamine]
The EC30 of the first is higher: 3.01 to 12 µM for the first, < 3 µM for the second.

Compared with `CNCCN(C)Cc1c[nH]nc1-c1ccc(N(CC(C)C)CC(C)C)nc1` [Compound 31], `CCN(CC(C)C)c1ccc(-c2n[nH]cc2CN(C)CCNC)cn1` [Compound 36] is lower in EC30: > 12 µM for the first, 3.01 to 12 µM for the second.

`CNCCN(C)Cc1c[nH]nc1-c1ccc(N(C)C(C)C)nc1` [Compound 33, N^1-((3-(6-(isopropyl(methyl)amino)pyridin-3-yl)-1H-pyrazol-4-yl)methyl)-N^1,N^2-dimethylethane-1,2-diamine] and `CNCCN(C)Cc1c[nH]nc1-c1ccc(OCC(C)C)nc1` [Compound 35, N^1-((3-(6-iso-butoxypyridin-3-yl)-1H-pyrazol-4-yl)methyl)-N^1,N^2-dimethylethane-1,2-diamine] cannot be ordered by EC30: < 3 µM for the first, < 3 µM for the second.
